From US8501772B2, “3,8-diaminotetrahydroquinoline derivative” (Zeria Pharmaceutical Co., Ltd., priority 2008, dated 2013)
Where a name gives a salt, the structure may show the parent alone.

Target: T1, human GHS-R1a (Homo sapiens, UniProt Q92847)
T1 construct: expressed in transfected cells
Assay: Agonistic activity by use of a cell line stably expressing human GHS-R1a (intracellular calcium increase)
Assay type: cell-based
Details: hGHS-R1a/CHO cells, percent increase in intracellular calcium vs 100 nM ghrelin; read-out: GHS-R agonistic activity (EC50: nM)
Description: CHO-K1 cells were transfected with human GHS-R1a genes, to thereby provide cells stably expressing GHS-R1a (hGHS-R1a/CHO), and the agonistic activity of each compound was evaluated by use of the cells based on percent increase in intracellular calcium as an index.
The hGHS-R1a/CHO cells were inoculated at 6×10^4 cells/well in a 96-well plate (Clear bottom/Black plate, product of Corning), and cultured in Ham's F12 medium containing 10% fetal bovine serum at 37° C. and 5% CO2 for 18 hours. After culture, the medium was removed, and then the hGHS-R1a/CHO cells were cultured for two hours in a Hanks' balanced salt solution/HEPES (HBSS/HEPES, 100 μL) containing a calcium fluorescent indicator (4 μM Fluo-3AM, product of Dojin), 2 mM Probenecid, 0.1% Pluronic F-127, and 0.1% BSA, whereby the indicator was incorporated into the cells. After washing the cells, HBSS/HEPES (175 μL/well) containing 2 mM Probenecid and 0.1% BSA was added to the plate, and the fluorescence before and after addition of each test compound was determined by means of FLEXstation (Ex: 485 nm, Em: 525 nm, product of Molecular Devices). Each test compound was multi-fold diluted with dimethyl sulfoxide and then diluted with HBSS/HEPES containing 2 mM Probenecid, 0.04% Pluronic F-127, and 0.1% BSA, to thereby attain a final concentration of interest. The thus-diluted solution (25 μL/well) was added to the wells.
Agonistic activity(%)=(A−B)/(C−D)×100
A: Fluorescence intensity after addition of test compound
B: Fluorescence intensity before addition of test compound
C: Fluorescence intensity after addition of 100 nM ghrelin
D: Fluorescence intensity before addition of ghrelin

T1 sequence (Q92847 whole entry): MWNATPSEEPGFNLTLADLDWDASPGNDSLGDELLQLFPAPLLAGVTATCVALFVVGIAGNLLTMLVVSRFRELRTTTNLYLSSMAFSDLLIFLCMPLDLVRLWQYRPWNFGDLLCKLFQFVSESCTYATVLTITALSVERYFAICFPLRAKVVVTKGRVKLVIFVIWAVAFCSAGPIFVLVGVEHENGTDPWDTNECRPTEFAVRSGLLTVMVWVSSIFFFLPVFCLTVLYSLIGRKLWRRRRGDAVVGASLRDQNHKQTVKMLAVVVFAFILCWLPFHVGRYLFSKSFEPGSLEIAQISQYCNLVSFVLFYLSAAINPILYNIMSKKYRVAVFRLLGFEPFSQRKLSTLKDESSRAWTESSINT

Row | EC50 [nM] | Structure (SMILES)
1 | 149 | CC(C)C[C@@H](NC(=O)C(C)(C)N)C(=O)NC1Cc2ccccc2N(Cc2ccccc2)C1=O (stereo partly drawn) [Comp. Ex. 1, (2R)-2-(2-Amino-2-methylpropanamido)-N-(1-benzyl-2-oxo-1,2,3,4-tetrahydroquinolin-3-yl)-4-methylpentanamide hydrochloride, reference compound]
2 | 6.13 | CC(C)C[C@@H](NC(=O)[C@H](C)N)C(=O)NC1Cc2cccc(N3CCCC3=O)c2N(Cc2ccsc2)C1=O (stereo partly drawn) [Example 25h, (2R)-2-((S)-2-aminopropanamido)-4-methyl-N-[2-oxo-8-(2-oxopyrrolidin-1-yl)-1-(thiophen-3-ylmethyl)-1,2,3,4-tetrahydroquinolin-3-yl]pentanamide]
3 | 4.13 | CC[C@](C)(N)C(=O)N[C@H](CC(C)C)C(=O)NC1Cc2cccc(N3CCCC3=O)c2N(Cc2ccsc2)C1=O (stereo partly drawn) [Example 25j, (2R)-2-((S)-2-amino-2-methylbutanamido)-4-methyl-N-[2-oxo-8-(2-oxopyrrolidin-1-yl)-1-(thiophen-3-ylmethyl)-1,2,3,4-tetrahydroquinolin-3-yl]pentanamide]
4 | < 0.1 | CC(C)(N)C(=O)N[C@H](Cc1c[nH]c2ccccc12)C(=O)NC1Cc2cccc(N3CCCC3=O)c2N(Cc2ccsc2)C1=O (stereo partly drawn) [Example 25l, N-[(2R)-3-(1H-indol-3-yl)-1-oxo-1-[2-oxo-8-(2-oxopyrrolidin-1-yl)-1-(thiophen-3-ylmethyl)-1,2,3,4-tetrahydroquinolin-3-ylamino]propan-2-yl]-2-amino-2-methylpropanamide]
5 | 0.052 | Cn1cc(C[C@@H](NC(=O)C(C)(C)N)C(=O)NC2Cc3cccc(N4CCCC4=O)c3N(Cc3ccsc3)C2=O)c2ccccc21 (stereo partly drawn) [Example 34b, 2-amino-2-methyl-N-[(2R)-3-(1-methyl-1H-indol-3-yl)-1-oxo-1-[2-oxo-8-(2-oxopyrrolidin-1-yl)-1-(thiophen-3-ylmethyl)-1,2,3,4-tetrahydroquinolin-3-ylamino]propan-2-yl]propanamide hydrochloride]
6 | 0.02 | CCn1cc(C[C@@H](NC(=O)C(C)(C)N)C(=O)NC2Cc3cccc(N4CCCC4=O)c3N(Cc3ccsc3)C2=O)c2ccccc21 (stereo partly drawn) [Example 34c, 2-amino-N-[(2R)-3-(1-ethyl-1H-indol-3-yl)-1-oxo-1-[2-oxo-8-(2-oxopyrrolidin-1-yl)-1-(thiophen-3-ylmethyl)-1,2,3,4-tetrahydroquinolin-3-ylamino]propan-2-yl]-2-methylpropanamide hydrochloride]
7 | 0.22 | CC(C)(N)C(=O)N[C@H](Cc1cn(CCF)c2ccccc12)C(=O)NC1Cc2cccc(N3CCCC3=O)c2N(Cc2ccsc2)C1=O (stereo partly drawn) [Example 34d, 2-amino-N-[(2R)-3-[1-(2-fluoroethyl)-1H-indol-3-yl]-1-oxo-1-[2-oxo-8-(2-oxopyrrolidin-1-yl)-1-(thiophen-3-ylmethyl)-1,2,3,4-tetrahydroquinolin-3-ylamino]propan-2-yl]-2-methylpropanamide hydrochloride]
8 | 0.07 | CCCn1cc(C[C@@H](NC(=O)C(C)(C)N)C(=O)NC2Cc3cccc(N4CCCC4=O)c3N(Cc3ccsc3)C2=O)c2ccccc21 (stereo partly drawn) [Example 34e, 2-amino-2-methyl-N-[(2R)-1-oxo-1-[2-oxo-8-(2-oxopyrrolidin-1-yl)-1-(thiophen-3-ylmethyl)-1,2,3,4-tetrahydroquinolin-3-ylamino]-3-(1-propyl-1H-indol-3-yl)propan-2-yl]propanamide hydrochloride]
9 | 1.13 | CC(C)n1cc(C[C@@H](NC(=O)C(C)(C)N)C(=O)NC2Cc3cccc(N4CCCC4=O)c3N(Cc3ccsc3)C2=O)c2ccccc21 (stereo partly drawn) [Example 34f, 2-amino-N-[(2R)-3-(1-isopropyl-1H-indol-3-yl)-1-oxo-1-[2-oxo-8-(2-oxopyrrolidin-1-yl)-1-(thiophen-3-ylmethyl)-1,2,3,4-tetrahydroquinolin-3-ylamino]propan-2-yl]-2-methylpropanamide hydrochloride]
10 | 2.75 | CC(C)C[C@@H](NC(=O)[C@@H](C)N)C(=O)NC1Cc2cccc(N3CCCC3=O)c2N(Cc2ccsc2)C1=O (stereo partly drawn) [Example 34g, (2R)-2-((R)-2-aminopropanamido)-4-methyl-N-[2-oxo-8-(2-oxopyrrolidin-1-yl)-1-(thiophen-3-ylmethyl)-1,2,3,4-tetrahydroquinolin-3-yl]pentanamide hydrochloride]
11 | 0.74 | CC[C@@](C)(N)C(=O)N[C@H](CC(C)C)C(=O)NC1Cc2cccc(N3CCCC3=O)c2N(Cc2ccsc2)C1=O (stereo partly drawn) [Example 34h, (2R)-2-((R)-2-amino-2-methylbutanamido)-4-methyl-N-[2-oxo-8-(2-oxopyrrolidin-1-yl)-1-(thiophen-3-ylmethyl)-1,2,3,4-tetrahydroquinolin-3-yl]pentanamide hydrochloride]
12 | 0.2 | CC[C@@](C)(N)C(=O)N[C@H](Cc1cn(C)c2ccccc12)C(=O)NC1Cc2cccc(N3CCCC3=O)c2N(Cc2ccsc2)C1=O (stereo partly drawn) [Example 34i, (2R)-2-amino-2-methyl-N-[(2R)-3-(1-methyl-1H-indol-3-yl)-1-oxo-1-[2-oxo-8-(2-oxopyrrolidin-1-yl)-1-(thiophen-3-ylmethyl)-1,2,3,4-tetrahydroquinolin-3-ylamino]propan-2-yl]butanamide hydrochloride]
13 | 1.5 | CC(C)C[C@@H](NC(=O)C(C)(C)N)C(=O)NC1Cc2cccc(N3CCCC3=O)c2N(Cc2cccs2)C1=O (stereo partly drawn) [Example 34m, (2R)-2-(2-amino-2-methylpropanamido)-4-methyl-N-[2-oxo-8-(2-oxopyrrolidin-1-yl)-1-(thiophen-2-ylmethyl)-1,2,3,4-tetrahydroquinolin-3-yl]pentanamide hydrochloride]
14 | 0.9 | CC(C)C[C@@H](NC(=O)C(C)(C)N)C(=O)NC1Cc2cccc(N3CCCC3=O)c2N(Cc2ccccc2)C1=O (stereo partly drawn) [Example 35, (2R)-2-(2-Amino-2-methylpropanamido)-N-[1-benzyl-2-oxo-8-(2-oxopyrrolidin-1-yl)-1,2,3,4-tetrahydroquinolin-3-yl]-4-methylpentanamide hydrochloride]
15 | 1.1 | CC(C)C[C@@H](NC(=O)C(C)(C)N)C(=O)NC1Cc2cccc(N3CCCCC3=O)c2N(Cc2ccccc2)C1=O (stereo partly drawn) [Example 36, (2R)-2-(2-Amino-2-methylpropanamido)-N-[1-benzyl-2-oxo-8-(2-oxopiperidin-1-yl)-1,2,3,4-tetrahydroquinolin-3-yl]-4-methylpentanamide hydrochloride]
16 | 1 | CC(C)C[C@@H](NC(=O)C(C)(C)N)C(=O)NC1Cc2cccc(N3C(=O)CCC3=O)c2N(Cc2ccccc2)C1=O (stereo partly drawn) [Example 37, (2R)-2-(2-Amino-2-methylpropanamido)-N-[1-benzyl-8-(2,5-dioxopyrrolidin-1-yl)-2-oxo-1,2,3,4-tetrahydroquinolin-3-yl]-4-methylpentanamide hydrochloride]
17 | 0.1 | CC(C)(N)C(=O)N[C@H](Cc1c[nH]c2ccccc12)C(=O)NC1Cc2cccc(N3CCCC3=O)c2N(Cc2ccccc2)C1=O (stereo partly drawn) [Example 38, 2-Amino-N-[(2R)-1-[1-benzyl-2-oxo-8-(2-oxopyrrolidin-1-yl)-1,2,3,4-tetrahydroquinolin-3-ylamino]-3-(1H-indol-3-yl)-1-oxopropan-2-yl]-2-methylpropanamide hydrochloride]
18 | 80 | CC(=O)Nc1cccc2c1N(Cc1ccccn1)C(=O)C(NC(=O)[C@@H](CC(C)C)NC(=O)C(C)(C)N)C2 (stereo partly drawn) [Example 40, (2R)—N-(8-Acetamido-2-oxo-1-(pyridin-2-ylmethyl)-1,2,3,4-tetrahydroquinolin-3-yl)-2-(2-amino-2-methylpropanamido)-4-methylpentanamide]
19 | 11.3 | CN(C)c1cccc2c1N(Cc1ccccn1)C(=O)C(NC(=O)[C@H](NC(=O)C(C)(C)N)c1ccccc1)C2 (stereo partly drawn) [Example 41, 2-Amino-N-((1R)-2-(8-(dimethylamino)-2-oxo-1-(pyridin-2-ylmethyl)-1,2,3,4-tetrahydroquinolin-3-ylamino)-2-oxo-1-phenylethyl)-2-methylpropanamide hydrochloride]

Row | Structure (SMILES) | EC50 [nM]
20 | CC(C)C[C@@H](NC(=O)C(C)(C)N)C(=O)NC1Cc2cccc(N3CCCC3=O)c2N(Cc2ccsc2)C1=O (stereo partly drawn) [Example 34k, (2R)-2-(2-amino-2-methylpropanamido)-4-methyl-N-[2-oxo-8-(2-oxopyrrolidin-1-yl)-1-(thiophen-3-ylmethyl)-1,2,3,4-tetrahydroquinolin-3-yl]pentanamide(R)-(−)-mandelate] | 0.47
21 | CC(C)C[C@@H](NC(=O)C(C)(C)N)C(=O)NC1Cc2cccc(N3CCCC3=O)c2N(Cc2ccsc2)C1=O (stereo partly drawn) [Example 34l, (2R)-2-(2-amino-2-methylpropanamido)-4-methyl-N-[2-oxo-8-(2-oxopyrrolidin-1-yl)-1-(thiophen-3-ylmethyl)-1,2,3,4-tetrahydroquinolin-3-yl]pentanamide(S)-(+)-mandelate] | 0.37
22 | CCN(CC)c1cccc2c1N(Cc1ccccn1)C(=O)C(NC(=O)[C@@H](CC(C)C)NC(=O)[C@H](N)Cc1ccc(O)cc1)C2 (stereo partly drawn) [Example 39, (2R)-2-((R)-2-Amino-3-(4-hydroxyphenyl)propanamido)-N-(8-(diethylamino)-2-oxo-1-(pyridin-2-ylmethyl)-1,2,3,4-tetrahydroquinolin-3-yl)-4-methylpentanamide hydrochloride] | 12.9
